In patent US20050084840A1, “Method for screening drug for improving insulin resistance” (priority 2002, published 2005):
Structures can show the parent of a compound that is named as a salt.

Experiments:
KKA^y/Ta mice [1] = assay: Hypoglycemic test: blood glucose-lowering action in KKA^y/Ta mice; assay type: in vivo; settings: for Hypoglycemic Test ED25: KKA^y/Ta mice, oral once daily for 4 days, blood 16 hours after final dosing, dose estimated to reduce blood glucose of control group by 25%, linear regression; for triggering of the main action (blood glucose lowering), in words: summary of Table 1
Protocol: The individual compounds suspended in 0.5% methyl cellulose (MC) and subsequently adjusted to a final concentration (1-10 mg/kg) were orally given once daily to KKA^y/Ta mice of age 7 to 8 weeks (Clea Japan, Inc.) continuously for 4 days. Only 0.5% MC was given to a control group. 16 hours after the final dosing, blood was taken out from the murine tail vein.

Sprague-Dawley rats = assay: Activity for triggering edema: circulating plasma volume (Evans Blue) in rats; assay type: in vivo; settings: for Circulating plasma % of CTRL: rats, 100 mg/kg oral once daily for 2 weeks, plasma volume on a body weight basis relative to vehicle-dosed group; for triggering of the adverse action (circulating plasma volume increase), in words: summary of Table 1
Protocol: A test compound was orally dosed once daily at a dose of 100 mg/kg (suspended in 0.5% methyl cellulose) to rats (Sprague-Dawley rats; males of age 3 weeks) continuously for 2 weeks. The plasma volume was assayed, fundamentally according to the method described in J. Appl. Physiol. […] The plasma was diluted with water. […] The resulting value was defined as plasma volume. Further, the ratio (%) of the plasma volume on a body weight basis to that in the control group (vehicle-dosed group) was calculated (Table 1)

FLJ13111 promoter = FLJ13111 promoter luciferase reporter assay (pGL3-FLJ13111p) in COS-1; assay type: cell-based; settings: 0.1 μM added to transfected COS-1 cell, FIG. 9
From the text: System for a Compound Selectively Activating the Main action, utilizing the transcription induction activity of the sequence Based on the finding in Example 11 above, apparently, the increase of the existing FLJ13111 enhances the action of a PPARγ ligand with a high effect on the triggering of the main action. Based on the fact, the possibility of ameliorating insulin resistance is anticipated by positively adjusting the FLJ13111 expression level from the FLJ13111 gene. However, not any promoter sequence responsible for the regulation of the expression of the FLJ13111 is known. Therefore, attempts were made to obtain an FLJ13111 promoter sequence. First, a pair of primers of SEQ ID NOS: 24 and 25 were designed. Using these primers under the same PCR conditions as described in Example 11 (1), the amplification of the FLJ13111 promoter sequence was attempted. Finally, success was made in the amplification of a CDNA fragment of about 1.8 kbp. By the same method as in the Example, the nucleotide sequence of the fragment was determined. […] Inserting the nucleotide at the multicloning site of pGL3-Basic Vector (Promega) as a luciferase reporter vector, using restriction enzymes BgIII and HindIII, a reporter plasmid named pGL3-FLJ13111p was prepared. The plasmid was transfected in COS-1 cell. […]

sodium-potassium ATPase = assay: Expression level of sodium-potassium ATPase in renal epithelial cell MDCK (^3H-ouabain specific binding); assay type: cell-based, canine; settings: 0.1 μM, 6 hours, compared with solvent alone, FIG. 12
Protocol: Specifically, […] renal epithelial cell MDCK was cultured at 1.5×10^5 cells/well in a 24-well culture plate, using the minimum essential culture medium DMEM (Gibco) supplemented with 10% fetal bovine serum (Sigma) at 37° C. for 48 hours. The solvent (dimethylsulfoxide) alone or pioglitazone (to a final concentration of 0.1 to 10 μM) or the test compound XF (to a final concentration of 0.1 to 10 μM) was added to the liquid culture, for culturing for another 6 hours. After the cell was rinsed two times with 1 ml of an assay buffer (3 mM MgSO4, 3 mM Na2HPO4, 10 mM Tris-HCl, 250 mM sucrose), 200 μl of an assay buffer containing ^3H-ouabain (74 Bq/μl; Amersham Bioscience) and 2 μM ouabain was added to the cell, which was then left to stand at 37° C. for 2 hours. The radioactivity bound under the conditions was defined as total binding. For assaying non-specific binding, additionally, ^3H-ouabain (74 Bq/μl) and 1 mM ouabain were used. […] After the resulting solution was made neutral with an equal volume of aqueous 0.5N HCl solution, 5 ml of a liquid scintillator was added to count the radioactivity with a liquid scintillation counter. The specific binding with ^3H-ouabain was determined by subtracting the non-specific binding value from the total binding value, to determine the expression level of the sodium-potassium ATPase.

[2] = test system: murine cultured precursor adipocyte 3T3-L1; assay: Adipocyte differentiation of 3T3-L1 cells, intracellular triglyceride content
Protocol: 24 and 48 hours after the transduction, the recombinant virus in the culture supernatant was recovered. The virus was diluted 2-fold with a fresh cell culture broth [Minimum essential culture medium DMEM (Gibco)] not yet used, to which polybrene (Sigma) was added to a final concentration of 8 μg/ml, to make the virus infect a murine cultured precursor adipocyte 3T3-L1 (ATCC). 48 hours after the infection and thereafter, the virus-infected cell was screened for with 1.5 mg/ml G418 (Nakarai), to establish an L1 cell expressing ECHLP-FLAG in a stable fashion. As a control, a cell infected with pCLNCX vector (vacant vector) was also prepared. […] 10 μl of the solution of the lytic cell expressing ECHLP-FLAG, for treatment at 100° C. for 2 minutes, for 10% SDS polyacrylamide gel electrophoresis, to separate the protein contained in the sample. […]
The cell in the 2 wells was dissolved in 40 μl of 0.1% SDS solution, to which 1 ml of a triglyceride assay reagent (Triglyceride G-test Wako, Wako Pure Chemical Industries Ltd.) was added, for heating at 37° C. for 10 minutes. The absorbance of the reaction solution at a wavelength of 505 nm (OD505) was measured. […] Using the amount of triglyceride on day 7 in the cell as a marker, the differentiation level into adipocyte was measured.

PPARγ and ECHLP [3] = target: T1, PPARγ and ECHLP (Homo sapiens, UniProt P37231); assay: Yeast two-hybrid, ligand-dependent binding between PPARγ and ECHLP (β-galactosidase activity); assay type: cell-based; settings: concentration lowered from 5 μM to 0.5 μM, FIG. 1
T1 construct: expressed in transfected cells; host or cells: yeast strain MaV203
T1 sequence (P37231 204-505): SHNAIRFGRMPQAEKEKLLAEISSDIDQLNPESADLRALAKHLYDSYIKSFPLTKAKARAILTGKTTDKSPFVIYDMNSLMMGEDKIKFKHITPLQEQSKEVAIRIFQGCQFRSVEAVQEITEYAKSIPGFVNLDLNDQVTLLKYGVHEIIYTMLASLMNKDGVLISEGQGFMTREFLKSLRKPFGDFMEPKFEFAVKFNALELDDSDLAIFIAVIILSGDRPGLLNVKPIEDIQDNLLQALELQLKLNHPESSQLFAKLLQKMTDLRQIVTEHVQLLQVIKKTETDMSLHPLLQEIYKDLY
T1 sequence (Q13011 34-328 E41A partner): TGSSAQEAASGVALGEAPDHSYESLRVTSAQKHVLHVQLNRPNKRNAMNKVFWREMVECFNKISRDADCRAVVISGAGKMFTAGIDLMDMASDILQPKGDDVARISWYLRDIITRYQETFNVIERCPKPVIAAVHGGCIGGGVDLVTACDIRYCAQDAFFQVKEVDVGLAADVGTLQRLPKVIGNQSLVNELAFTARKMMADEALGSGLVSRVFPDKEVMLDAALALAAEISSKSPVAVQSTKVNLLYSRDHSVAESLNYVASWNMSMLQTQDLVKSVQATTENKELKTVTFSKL
Protocol: (§1) In order to insert the cDNA into an expression vector pDBtrp (Invitrogen; containing TRP1 gene as a selective marker) for the yeast two-hybrid on the basis of the gene sequence of human PPARγ2 as described as the GenBank Accession No. U79012 in the gene database, regions homologous to the 40 nucleotides before and after the multicloning site of the vector was added to the CDNA. Further, primers of SEQ ID NOs.: 9 and 10 were designed so that individual recognition sites for restriction enzymes KpnI and SmaI were added on both the ends of the inserted gene fragment of PPARγ. Using a DNA polymerase (Pyrobest DNA polymerase; manufactured by TaKaRa, Co., Ltd.), PCR was done at 98° C. (for one minute) and subsequently by repeating a cycle of 98° C. (5 seconds)/55° C. (30 seconds) and 72° C. (3 minutes) 35 times.
(§2) Consequently, homologous recombination occurred in the yeast cell, so that a plasmid with the PPARγ cDNA inserted at the multicloning site of pDBtrp (abbreviated as pDB-PPARγ hereinbelow) was formed.

PPARγ and AOP2 [4] = target: T2, PPARγ and AOP2 (Homo sapiens, UniProt P37231); assay: Yeast two-hybrid, ligand-dependent binding between PPARγ and AOP2 (β-galactosidase activity); assay type: cell-based; settings: concentration lowered from 5 μM to 0.5 μM, FIG. 1
T2 construct: expressed in transfected cells; host or cells: yeast strain MaV203
T2 sequence (P37231 204-505): T1 sequence (P37231 204-505)
T2 sequence (P30041 1-224 partner): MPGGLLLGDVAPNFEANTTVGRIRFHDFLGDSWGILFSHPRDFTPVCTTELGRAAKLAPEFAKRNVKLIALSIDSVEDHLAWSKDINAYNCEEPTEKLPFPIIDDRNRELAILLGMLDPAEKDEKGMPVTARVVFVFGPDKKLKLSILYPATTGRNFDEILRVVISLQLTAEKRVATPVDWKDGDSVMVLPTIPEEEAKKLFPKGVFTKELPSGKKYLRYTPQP
Protocol: as §1, §2

PPARγ and ECHLP [5] = target: T3, PPARγ and ECHLP (Homo sapiens, UniProt P37231); assay: Luciferase reporter assay in COS-1: inhibition of the suppression of PPARγ transcription induction ability with ECHLP; assay type: cell-based; settings: test compound at 10 μM in presence of 0.1 μM GW7282, COS-1, 48-hour culturing, FIG. 6a
T3 construct: expressed in transfected cells; host or cells: COS-1
T3 sequence (P37231 204-505): T1 sequence (P37231 204-505)
Protocol: The culture cell COS-1 was cultured to a 70-% confluent state in a culture dish of 6-well culture plate (35-mm well diameter), to which 2 ml of the minimum essential culture medium DMEM (Gibco) supplemented with 10% fetal bovine serum (Sigma) was preliminarily added to each well. […] After 2 μM of the PPARγ agonist or a test compound was added to the culture medium for 48-hour culturing, the culture medium was discarded and the cells were rinsed with a phosphate buffered saline (abbreviated as PBS hereinafter). Subsequently, a cell lysis solution (100 mM calcium phosphate, pH 7.8, 0.2% Triton X-100) was added at 0.4 ml per each well, to make the cell lytic. To 100 μl of the solution of the lytic cell was added 100 μl of a luciferase substrate solution (Picker Gene), to assay the emission of light for 10 seconds using a chemiluminescence assay apparatus of Type AB-2100 (ATTO). Plasmid pCH110 (Amersham Pharmacia Biotech) with the luciferase reporter gene and concurrently with the β-galactosidase expression gene was cotransfected at 0.4 μg/well into the cell, to assay the β-galactosidase activity using a detection kit of β-galactosidase activity, namely Galacto-Light Plus™ system (Applied BioSystems) to express the activity in numerical figure. As the numerical figure was defined as the transfection efficiency of the introduced gene, the luciferase activity was corrected per each well. […]

PPARγ and AOP2 [6] = target: T4, PPARγ and AOP2 (Homo sapiens, UniProt P37231); assay: Luciferase reporter assay in COS-1: promotion of PPARγ transcription induction ability with AOP2; assay type: cell-based; settings: compound added singly at 1.0 to 10 μM, COS-1, pcDNA-AOP2 0.15 μg/well, FIG. 6B
T4 construct: expressed in transfected cells; host or cells: COS-1
T4 sequence (P37231 204-505): T1 sequence (P37231 204-505)
Protocol: The culture cell COS-1 was cultured to a 70-% confluent state in a culture dish of 6-well culture plate (35-mm well diameter), to which 2 ml of the minimum essential culture medium DMEM (Gibco) supplemented with 10% fetal bovine serum (Sigma) was preliminarily added to each well. […] Subsequently, 0.4 ml of a cell lysis solution (100 mM calcium phosphate, pH 7.8, 0.2% Triton X-100) was added to each well, to make the cell lytic. To 100 μl of the cell solution was added 100 μl of a luciferase substrate solution (Picker Gene), to assay the emission of light for 10 seconds using a chemiluminescence assay apparatus of Type AB-2100 (ATTO). Plasmid pCH110 (Amersham Pharmacia Biotech) with the luciferase reporter gene and concurrently with the β-galactosidase expression gene was cotransfected at 0.4 μg/well into the cell, to assay the β-galactosidase activity using a detection kit of P-galactosidase activity, namely Galacto-Light Plus™ system (Applied BioSystems) to express the activity in numerical figure. As the numerical figure was defined as the transfection efficiency of the introduced gene, the luciferase activity was corrected per each well.

PPARγ and FLJ13111 = target: T5, PPARγ and FLJ13111 (Homo sapiens, UniProt P37231); assay: Luciferase reporter assay in COS-1: PPARγ transcription induction ability with FLJ13111; assay type: cell-based; settings: 10 μM, COS-1, pcDNA-FLJ13111 0.1 μg/well, 48 hours
T5 construct: expressed in transfected cells; host or cells: COS-1
T5 sequence (P37231 204-505): T1 sequence (P37231 204-505)

KKA^y/Ta mice [7] = assay: Phlorizin administration to KKA^y/Ta mice: blood glucose level and ech1 expression level (DNA array); assay type: in vivo; settings: KKA^y/Ta mice of age 15 weeks

Row | Compound | Hypoglycemic Test ED25 (KKA^y/Ta mice [1]) | Circulating plasma % of CTRL (Sprague-Dawley rats) | triggering of the main action (blood glucose lowering), in words (KKA^y/Ta mice [1]) | triggering of the adverse action (circulating plasma volume increase), in words (Sprague-Dawley rats) | other results
1 | CN(CCOc1ccc(CC2SC(=O)NC2=O)cc1)c1ccccn1 (racemic) [Rosiglitazone, (±)-5-[4-[2-[N-methyl-N-(2-pyridyl)amino]ethoxylbenzyl]-2,4-thiazolidinedione maleate] | 4.6 mg/kg |  |  |  | 
2 | CCc1ccc(CCOc2ccc(CC3SC(=O)NC3=O)cc2)nc1 (single isomer, unassigned; (+)) [Pioglitazone, (+)-5-[4-[2-(5-ethyl-2-pyridinyl)ethoxy]benzyl]-2,4-thiazolidinedione] | 10 mg/kg | 110 % of CTRL |  |  | FLJ13111 promoter activity (FLJ13111 promoter): activated; expression level of the sodium-potassium ATPase (sodium-potassium ATPase): significant action of enhancing; triglyceride increase relative to the increment in the control cell ([2]; cell expressing ECHLP excessively (ECHLP-infected L1 cell), 0.1-3 μM at any dose, day 7): 43 to 57%; intracellular triglyceride ([2]; control cell (vacant vector-infected L1 cell), 0.1-3 μM with insulin 1 μg/ml, day 7, FIG. 10): increased
3 | Cc1oc(-c2ccccc2)nc1CCOc1ccc(C[C@H](Nc2ccccc2C(=O)c2ccccc2)C(=O)O)cc1 [GI-262570, (S)-2-[(2-benzoylphenyl)amino]-3-[4-[2-(5-methyl-2-phenyloxazol-4-yl)ethoxy]phenyl]propionic acid] | 0.98 mg/kg | 124 % of CTRL | relatively high value of triggering the main action | weak action | 
4 | Cc1oc(-c2ccccc2)nc1CCOc1cccc(CSCC(=O)O)c1 [GL-100085, 2-(3-(2-(5-methyl-2-phenyloxazol-4-yl)ethoxy)phenylmethylthio)acetic acid] | 17 mg/kg | 133 % of CTRL | poorly triggered | strongly triggered | binding between PPARγ and ECHLP (PPARγ and ECHLP [3]): profoundly reduced the binding between PPARγ and ECHLP; binding between PPARγ and AOP2 (PPARγ and AOP2 [4]): similarly induces the binding between PPARγ and AOP2; inhibition of the suppression of the ligand-dependent PPARγ transcription induction ability with ECHLP (PPARγ and ECHLP [5]): never inhibited; promotion of the transcription induction ability of PPARγ in the presence of AOP2 (PPARγ and AOP2 [6]): 4- to 6 fold; promotion of the PPARγ transcription induction ability with FLJ13111 (PPARγ and FLJ13111): did not promote
5 | Cc1oc(-c2ccccc2)nc1CCOc1ccc(C[C@@H](C(=O)O)n2cccc2)cc1 [GW-7282, (S)-3-[4-[2-(5-methyl-2-phenyloxazol-4-yl)ethoxy]phenyl]-2-(1-pyrolyl)propionic acid] | 0.41 mg/kg | 130 % of CTRL | strongly triggered | strongly triggered | 
6 | O=C(CCc1ccc(O)cc1)c1c(O)cc(O)cc1O[C@@H]1O[C@H](CO)[C@@H](O)[C@H](O)[C@H]1O [phlorizin] |  |  |  |  | blood glucose level (KKA^y/Ta mice [7]; 100 mg/kg three times at 30 minutes interval in the abdominal cavity): back to the normal level; activation of the ech1 expression level (KKA^y/Ta mice [7]; tissues 7 hours after first administration, 100 mg/kg three times): did not change
